In PMC10580383, “Development of Melanocortin 4 Receptor Agonists by Exploiting Animal-Derived Macrocyclic, Disulfide-Rich Peptide Scaffolds” (ACS Pharmacology & Translational Science, 2023):
Where a SMILES comes first, the peptide text is derived from it. Bridges are numbered along the chain shown (N, C = ends). [ ]: non-standard residue; d: D form.

Assays:
[1] = target: T1, mouse melanocortin 4 receptor (MC4R) (Mus musculus, UniProt P56450); assay: cAMP second messenger quantification assay (Cisbio HTRF cAMP Gs kit); assay type: cell-based; settings: for Emax: HEK293, read-out: efficacy cAMP Emax ± SD
T1 construct: expressed in transfected cells; host or cells: HEK293 / HEK293T, transient transfection
T1 sequence (P56450 whole entry): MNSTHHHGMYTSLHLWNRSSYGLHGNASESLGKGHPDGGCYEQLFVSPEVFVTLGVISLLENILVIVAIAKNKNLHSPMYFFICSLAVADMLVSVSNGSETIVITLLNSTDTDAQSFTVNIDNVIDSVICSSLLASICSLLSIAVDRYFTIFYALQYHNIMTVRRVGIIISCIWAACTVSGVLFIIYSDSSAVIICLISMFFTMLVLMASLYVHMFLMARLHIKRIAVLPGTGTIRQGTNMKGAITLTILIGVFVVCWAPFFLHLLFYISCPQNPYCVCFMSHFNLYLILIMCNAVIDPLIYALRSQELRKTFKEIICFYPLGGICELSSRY

mouse MC4R-EGFP = assay: kinetic BRET β-arrestin-2 recruitment assay (MC4R-EGFP / β-arrestin-2-nanoluciferase); assay type: cell-based; settings: ligand 10 μM; HEK293 cells, MC4R-EGFP and β-arrestin-2-NLuc; mean ligand-induced BRET from 312 to 2433 s, NDP-α-MSH set as 100; three independent experiments
Protocol: Considering the physiological relevance of β-arrestins and their critical role in orchestrating MC4R signaling, we measured β-arrestin-2 recruitment in a kinetic bioluminescence resonance energy transfer (BRET) assay. We screened at a ligand concentration of 10 μM in HEK293 cells transiently expressing MC4R coupled to EGFP, and β-arrestin-2 fused to nanoluciferase. […] By contrast, Pr4LP1, Ar3LP1, Ar3LP2, and GoLP1 recruited β-arrestin-2 with greater efficiencies (>130%) than NDP-α-MSH (Figures 4 and S5B,C).
Figure 4 β-Arrestin-2 recruitment of designed MC4R peptide analogues. BRET assay was used to measure the transient interaction of MC4R-EGFP with β-arrestin-2-nanoluciferase (NLuc) in HEK293 cells over time following cell treatment with 10 μM of tachyplesin-1-like peptides (Ta1LPs, green), protegrin-4-like peptides (Pr4LPs, pink), arenicin-3-like peptides (Ar3LPs, orange), and gomesin-like peptides (GoLPs, blue). Relative BRET quantification was determined by calculating the mean value of ligand-induced BRET for each peptide ligand from 312 to 2433 s which was then divided by the mean value of ligand-induced BRET of NDP-α-MSH set as 100. Data are shown as mean ± SEM from three independent experiments.
BRET assay was performed as previously described.[32] Briefly, β-arrestin-2-nano luciferase and mouse MC4R-EGFP were cotransfected in a 1:10 ratio. 16 h post-transfection, 50,000 cells in 100 μL of phenol red-free DMEM with 10% FBS per well were transferred into white clear bottom 96-well plates and incubated overnight. On the day of the assay, cells were incubated for 1 h at 37 °C in phenol red- and serum-free DMEM. Furimazine (diluted 1:50) and peptide ligands (4×) were prepared in Hank’s balanced salt solution (HBSS), respectively. Prior to establishing the baseline and measuring kinetic BRET, furimazine was incubated for 5 min at 37 °C. The ability of peptide ligands to induce β-arrestin-2 recruitment was assessed by measuring light emissions for EGFP (510 nm) and nanoluciferase (460 nm) over 35 min using Flexstation 3 (Molecular Devices, San Jose, USA). The BRET ratio was calculated as emission EGFP (510 nm)/emission nanoluciferase (460 nm). The ligand-induced BRET was calculated by subtracting […].

human MC4R = assay: pGlo cAMP accumulation assay; assay type: cell-based; settings: cells transiently expressing human MC4R, 1 and 10 μM, three independent experiments in technical triplicate
Protocol: (§1) Following functional analysis at MC4R, we were intrigued to know how selective Pr4LP1 and Ar3LP1 were for MC4R vs other melanocortin receptors.
(§2) Figure 6 Selectivity determination of Pr4LP1 and Ar3LP1 peptides at MC4R vs MC1R and MC3R. […] Data (not normalized) are represented as mean ± SEM from three independent experiments performed in technical triplicate.
(§3) Cells transiently expressing human MC1R, MC3R, or MC4R were incubated for 24 h. Afterward all contents of each well were carefully removed, and cells were then equilibrated in cAMP buffer [1× HBSS, 24 mM HEPES, 0.1% (w/v) BSA, 3.96 mM NaHCO3, 1 mM MgSO4, 1.3 mM CaCl2 dihydrate], supplemented with firefly D-luciferin free acid (0.45 mg/mL) (NanoLight Technology). 90 μL of cAMP buffer was added to all wells, and the 96-well plate was then incubated (28 °C, 1 h). Bioluminescence was measured using the CLARIOstar Plus Plate Reader (BMG LabTech). Prior to injecting the treatment ligands, approximately 5–10 basal readings were performed until stabilization was reached. Peptide ligands (10 μL) were added to the well. Bioluminescence was measured for a total of 30 cycles (1 min per cycle, 1 s integration time, without filter, a fixed gain of 3000, and autofocus).

human MC3R = assay: pGlo cAMP accumulation assay; assay type: cell-based; settings: cells transiently expressing human MC3R, up to 10 μM, three independent experiments in technical triplicate
Protocol: as §1, §2, §3

human MC1R = assay: pGlo cAMP accumulation assay; assay type: cell-based; settings: cells transiently expressing human MC1R, up to 10 μM, three independent experiments in technical triplicate
Protocol: as §1, §2, §3

MC4R over MC1R and MC3R = settings: Figure S6

Structure (SMILES) | EC50 [1] | Emax [1] | BRET efficacy of β-arrestin-2 recruitment relative to NDP-α-MSH (mouse MC4R-EGFP) | cAMP response at MC4R (RLU) (human MC4R) | cAMP response at MC3R (RLU) (human MC3R) | cAMP response at MC1R (RLU) (human MC1R) | selectivity in recruiting β-arrestin-2 (MC4R over MC1R and MC3R)
CC(C)[C@@H]1NC(=O)[C@H](Cc2ccc(O)cc2)NC(=O)[C@H](Cc2c[nH]c3ccccc23)NC(=O)[C@@H](NC(=O)[C@H](Cc2ccccc2)NC(=O)CN)CSSC[C@@H](C(=O)N[C@@H](CC(N)=O)C(N)=O)NC(=O)[C@H](CCCNC(=N)N)NC(=O)[C@H](CCCNC(=N)N)NC(=O)[C@H](Cc2ccc(O)cc2)NC(=O)[C@@H]2CSSC[C@H](NC1=O)C(=O)N1CCC[C@H]1C(=O)N[C@@H](Cc1c[nH]cn1)C(=O)N[C@H](Cc1ccccc1)C(=O)N[C@@H](Cc1c[nH]cn1)C(=O)N[C@@H](Cc1c[nH]c3ccccc13)C(=O)N2 [Ar3LP1] (H-GFCWYVCPH[dF]HWCYRRCN-NH2; disulfide 3-17, 7-13) | 1 nM | 98 ± 4% | > 130% | activate the receptor | no response | no response | selective for MC4R over MC1R and MC3R
CC(C)C[C@H](NC(=O)[C@H](CCCNC(=N)N)NC(=O)CNC(=O)CNC(=O)[C@@H](N)CCCNC(=N)N)C(=O)N[C@H]1CSSC[C@@H](C(=O)N[C@H](C(=O)NCC(=O)N[C@@H](CCCNC(=N)N)C(N)=O)C(C)C)NC(=O)[C@H](Cc2ccccc2)NC(=O)[C@@H]2CSSC[C@H](NC(=O)[C@H](Cc3ccc(O)cc3)NC1=O)C(=O)N1CCC[C@H]1C(=O)N[C@@H](Cc1c[nH]cn1)C(=O)N[C@H](Cc1ccccc1)C(=O)N[C@@H](Cc1c[nH]cn1)C(=O)N[C@@H](Cc1c[nH]c3ccccc13)C(=O)N2 [Pr4LP1] (H-RGGRLCYCPH[dF]HWCFCVGR-NH2; disulfide 6-16, 8-14) | 3.98 nM | 96 ± 3% | > 130% | activate the receptor | no response | no response | selective for MC4R over MC1R and MC3R
